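Results reflect a 48-hour exposure of cells in 96-well plates to compound at five concentrations. GI50 is the concentration that inhibits growth by half. Definition used: TGI = concentration required for complete inhibition of growth.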
How the values were obtained:
Experiment in all cases: inhibition of tumour cell growth, NCI panel, 48 h
TK-10 renal = tested on: TK-10 renal
OVCAR-3 ovarian = tested on: OVCAR-3 ovarian
MALME-3M melanoma = tested on: MALME-3M melanoma
A498 renal = tested on: A498 renal
MDA-MB-435 = tested on: MDA-MB-435
OVCAR-8 ovarian = tested on: OVCAR-8 ovarian
M14 melanoma = tested on: M14 melanoma
T-47D breast = tested on: T-47D breast
K-562 leukemia = tested on: K-562 leukemia
HCT-15 colon = tested on: HCT-15 colon
MOLT-4 leukemia = tested on: MOLT-4 leukemia
SF-268 CNS = tested on: SF-268 CNS
CAKI-1 renal = tested on: CAKI-1 renal
SK-MEL-5 melanoma = tested on: SK-MEL-5 melanoma
BT-549 breast = tested on: BT-549 breast
HCC-2998 colon = tested on: HCC-2998 colon
SK-OV-3 ovarian = tested on: SK-OV-3 ovarian
NCI-H226 lung = tested on: NCI-H226 lung
SK-MEL-28 melanoma = tested on: SK-MEL-28 melanoma
SNB-75 CNS = tested on: SNB-75 CNS
IGROV1 ovarian = tested on: IGROV1 ovarian
COLO 205 colon = tested on: COLO 205 colon
SW-620 colon = tested on: SW-620 colon
CCRF-CEM leukemia = tested on: CCRF-CEM leukemia
SR leukemia = tested on: SR leukemia
UACC-62 melanoma = tested on: UACC-62 melanoma
NCI/ADR-RES ovarian = tested on: NCI/ADR-RES ovarian
OVCAR-5 ovarian = tested on: OVCAR-5 ovarian
RXF 393 renal = tested on: RXF 393 renal
HL-60(TB) leukemia = tested on: HL-60(TB) leukemia
HS 578T breast = tested on: HS 578T breast
NCI-H23 lung = tested on: NCI-H23 lung
SF-295 CNS = tested on: SF-295 CNS
SF-539 CNS = tested on: SF-539 CNS
NCI-H522 lung = tested on: NCI-H522 lung
SK-MEL-2 melanoma = tested on: SK-MEL-2 melanoma
KM12 colon = tested on: KM12 colon
RPMI-8226 leukemia = tested on: RPMI-8226 leukemia
MCF7 breast = tested on: MCF7 breast
PC-3 prostate = tested on: PC-3 prostate
U251 CNS = tested on: U251 CNS
A549 NSCLC = tested on: A549 NSCLC
HCT-116 colon = tested on: HCT-116 colon
MDA-MB-231 breast = tested on: MDA-MB-231 breast
OVCAR-4 ovarian = tested on: OVCAR-4 ovarian
EKVX NSCLC = tested on: EKVX NSCLC
HOP-62 NSCLC = tested on: HOP-62 NSCLC
DU-145 prostate = tested on: DU-145 prostate
HT29 colon = tested on: HT29 colon
786-0 renal = tested on: 786-0 renal
NCI-H460 lung = tested on: NCI-H460 lung
UO-31 renal = tested on: UO-31 renal
HOP-92 NSCLC = tested on: HOP-92 NSCLC
ACHN renal = tested on: ACHN renal
UACC-257 melanoma = tested on: UACC-257 melanoma
SNB-19 CNS = tested on: SNB-19 CNS
SN12C renal = tested on: SN12C renal

Question: With `COc1ccc(C(=O)c2cc(OC)c(OC)c(OC)c2)cc1/C=C/C(=O)c1ccc(F)cc1` as the compound, how does the GI50 (TK-10 renal) read?
Answer: 4.43 µM

Question: And the TGI (TK-10 renal)?
Answer: 30.9 µM

Question: And the GI50 (OVCAR-3 ovarian)?
Answer: 4.83 µM

Question: And the TGI (OVCAR-3 ovarian)?
Answer: 15.5 µM

Question: And the GI50 (MALME-3M melanoma)?
Answer: 2.76 µM

Question: And the TGI (MALME-3M melanoma)?
Answer: 8.87 µM

Question: What about the GI50 (A498 renal) of the same compound?
Answer: 14 µM

Question: And the TGI (A498 renal)?
Answer: 29.9 µM

Question: What about the GI50 (MDA-MB-435) of the same compound?
Answer: 2.88 µM

Question: What about the TGI (MDA-MB-435) of the same compound?
Answer: 13.6 µM

Question: And the GI50 (OVCAR-8 ovarian)?
Answer: 3.7 µM

Question: And the TGI (OVCAR-8 ovarian)?
Answer: 37.8 µM

Question: And the GI50 (M14 melanoma)?
Answer: 3.39 µM

Question: And the TGI (M14 melanoma)?
Answer: 18 µM

Question: What about the GI50 (T-47D breast) of the same compound?
Answer: 3.54 µM

Question: And the TGI (T-47D breast)?
Answer: 27.8 µM

Question: What about the GI50 (K-562 leukemia) of the same compound?
Answer: 2.34 µM

Question: What about the TGI (K-562 leukemia) of the same compound?
Answer: > 100 µM

Question: What about the GI50 (HCT-15 colon) of the same compound?
Answer: 2.14 µM

Question: What about the TGI (HCT-15 colon) of the same compound?
Answer: 6.96 µM

Question: What about the GI50 (MOLT-4 leukemia) of the same compound?
Answer: 3.24 µM

Question: And the TGI (MOLT-4 leukemia)?
Answer: 29.3 µM

Question: What about the GI50 (SF-268 CNS) of the same compound?
Answer: 3.86 µM

Question: And the TGI (SF-268 CNS)?
Answer: 16.1 µM

Question: And the GI50 (CAKI-1 renal)?
Answer: 2.78 µM

Question: And the TGI (CAKI-1 renal)?
Answer: 14.6 µM

Question: And the GI50 (SK-MEL-5 melanoma)?
Answer: 4.31 µM

Question: What about the TGI (SK-MEL-5 melanoma) of the same compound?
Answer: 15.5 µM

Question: What about the GI50 (BT-549 breast) of the same compound?
Answer: 3.27 µM

Question: What about the TGI (BT-549 breast) of the same compound?
Answer: 13.1 µM

Question: What about the GI50 (HCC-2998 colon) of the same compound?
Answer: 7.29 µM

Question: And the TGI (HCC-2998 colon)?
Answer: 22.6 µM

Question: What about the GI50 (SK-OV-3 ovarian) of the same compound?
Answer: 17.9 µM

Question: What about the TGI (SK-OV-3 ovarian) of the same compound?
Answer: 73.1 µM

Question: What about the GI50 (NCI-H226 lung) of the same compound?
Answer: 3.57 µM

Question: And the TGI (NCI-H226 lung)?
Answer: 18.1 µM

Question: What about the GI50 (SK-MEL-28 melanoma) of the same compound?
Answer: 2.48 µM

Question: And the TGI (SK-MEL-28 melanoma)?
Answer: 7.25 µM

Question: And the GI50 (SNB-75 CNS)?
Answer: 3.18 µM

Question: What about the TGI (SNB-75 CNS) of the same compound?
Answer: 20.7 µM

Question: And the GI50 (IGROV1 ovarian)?
Answer: 2.59 µM

Question: And the TGI (IGROV1 ovarian)?
Answer: 6.73 µM

Question: And the GI50 (COLO 205 colon)?
Answer: 5.18 µM

Question: What about the TGI (COLO 205 colon) of the same compound?
Answer: 28.1 µM

Question: What about the GI50 (SW-620 colon) of the same compound?
Answer: 2.53 µM

Question: What about the TGI (SW-620 colon) of the same compound?
Answer: 7.44 µM

Question: And the GI50 (CCRF-CEM leukemia)?
Answer: 2.24 µM

Question: What about the TGI (CCRF-CEM leukemia) of the same compound?
Answer: 9.69 µM

Question: What about the GI50 (SR leukemia) of the same compound?
Answer: 2.04 µM

Question: What about the TGI (SR leukemia) of the same compound?
Answer: 95.7 µM

Question: What about the GI50 (UACC-62 melanoma) of the same compound?
Answer: 2.01 µM

Question: What about the TGI (UACC-62 melanoma) of the same compound?
Answer: 5.52 µM

Question: And the GI50 (NCI/ADR-RES ovarian)?
Answer: 3.69 µM

Question: What about the TGI (NCI/ADR-RES ovarian) of the same compound?
Answer: 73.2 µM

Question: What about the GI50 (OVCAR-5 ovarian) of the same compound?
Answer: 2.67 µM

Question: And the TGI (OVCAR-5 ovarian)?
Answer: 11.5 µM

Question: What about the GI50 (RXF 393 renal) of the same compound?
Answer: 7.29 µM

Question: And the TGI (RXF 393 renal)?
Answer: 23.3 µM

Question: And the GI50 (HL-60(TB) leukemia)?
Answer: 4.8 µM

Question: What about the TGI (HL-60(TB) leukemia) of the same compound?
Answer: > 100 µM

Question: What about the GI50 (HS 578T breast) of the same compound?
Answer: 4.48 µM

Question: And the TGI (HS 578T breast)?
Answer: > 100 µM

Question: And the GI50 (NCI-H23 lung)?
Answer: 6.2 µM

Question: And the TGI (NCI-H23 lung)?
Answer: 31.1 µM

Question: And the GI50 (SF-295 CNS)?
Answer: 7.21 µM

Question: What about the TGI (SF-295 CNS) of the same compound?
Answer: 37.3 µM

Question: And the GI50 (SF-539 CNS)?
Answer: 1.98 µM

Question: What about the TGI (SF-539 CNS) of the same compound?
Answer: 4.3 µM

Question: And the GI50 (NCI-H522 lung)?
Answer: 2.02 µM

Question: What about the TGI (NCI-H522 lung) of the same compound?
Answer: 5.34 µM

Question: And the GI50 (SK-MEL-2 melanoma)?
Answer: 9.89 µM

Question: What about the TGI (SK-MEL-2 melanoma) of the same compound?
Answer: 38.2 µM

Question: What about the GI50 (KM12 colon) of the same compound?
Answer: 2.79 µM

Question: What about the TGI (KM12 colon) of the same compound?
Answer: 8.07 µM

Question: And the GI50 (RPMI-8226 leukemia)?
Answer: 2.32 µM

Question: What about the TGI (RPMI-8226 leukemia) of the same compound?
Answer: 6.98 µM

Question: What about the GI50 (MCF7 breast) of the same compound?
Answer: 2.3 µM

Question: What about the TGI (MCF7 breast) of the same compound?
Answer: 11.1 µM

Question: And the GI50 (PC-3 prostate)?
Answer: 3.3 µM

Question: And the TGI (PC-3 prostate)?
Answer: 13.7 µM

Question: What about the GI50 (U251 CNS) of the same compound?
Answer: 1.85 µM

Question: And the TGI (U251 CNS)?
Answer: 3.54 µM

Question: And the GI50 (A549 NSCLC)?
Answer: 16.5 µM

Question: What about the TGI (A549 NSCLC) of the same compound?
Answer: > 100 µM

Question: What about the GI50 (HCT-116 colon) of the same compound?
Answer: 1.75 µM

Question: And the TGI (HCT-116 colon)?
Answer: 3.57 µM

Question: And the GI50 (MDA-MB-231 breast)?
Answer: 4.72 µM

Question: And the TGI (MDA-MB-231 breast)?
Answer: 84.5 µM

Question: And the GI50 (OVCAR-4 ovarian)?
Answer: 4.55 µM

Question: What about the TGI (OVCAR-4 ovarian) of the same compound?
Answer: 33.6 µM

Question: And the GI50 (EKVX NSCLC)?
Answer: 11.1 µM

Question: And the TGI (EKVX NSCLC)?
Answer: 31.4 µM

Question: What about the GI50 (HOP-62 NSCLC) of the same compound?
Answer: 3.92 µM

Question: And the TGI (HOP-62 NSCLC)?
Answer: 26.7 µM

Question: And the GI50 (DU-145 prostate)?
Answer: 7.72 µM

Question: And the TGI (DU-145 prostate)?
Answer: 21 µM

Question: What about the GI50 (HT29 colon) of the same compound?
Answer: 2.44 µM

Question: What about the TGI (HT29 colon) of the same compound?
Answer: 5.63 µM

Question: What about the GI50 (786-0 renal) of the same compound?
Answer: 2.15 µM

Question: What about the TGI (786-0 renal) of the same compound?
Answer: 5.57 µM

Question: What about the GI50 (NCI-H460 lung) of the same compound?
Answer: 16 µM

Question: And the TGI (NCI-H460 lung)?
Answer: 52.7 µM

Question: What about the GI50 (UO-31 renal) of the same compound?
Answer: 1.77 µM

Question: What about the TGI (UO-31 renal) of the same compound?
Answer: 3.49 µM

Question: What about the GI50 (HOP-92 NSCLC) of the same compound?
Answer: 2.7 µM

Question: And the TGI (HOP-92 NSCLC)?
Answer: 34.9 µM

Question: What about the GI50 (ACHN renal) of the same compound?
Answer: 1.68 µM

Question: What about the TGI (ACHN renal) of the same compound?
Answer: 3.23 µM

Question: And the GI50 (UACC-257 melanoma)?
Answer: 12.3 µM

Question: What about the TGI (UACC-257 melanoma) of the same compound?
Answer: 49.7 µM

Question: And the GI50 (SNB-19 CNS)?
Answer: 2.26 µM

Question: And the TGI (SNB-19 CNS)?
Answer: 5.96 µM

Question: What about the GI50 (SN12C renal) of the same compound?
Answer: 2.62 µM

Question: What about the TGI (SN12C renal) of the same compound?
Answer: 8.18 µM
